Assay results published in patent US20230000813A1, “COMPOUND FOR THE TREATMENT OF BOVINE OR SWINE RESPIRATORY DISEASE” (Intervet Inc., priority 2016, published 2023).
Values after ≈ are worked out from the molar mass of the structure shown. Where two headings read alike, the source gives them in different places.

What was measured:
Assay type in all cases: cell-based
[1] = tested on: 40 isolates of Mannheimia (M.) haemolytica; assay: MIC50/MIC90, broth-microdilution, European respiratory tract isolates
Method: (§1) The in vitro activity of compounds against 20 isolates of Actinobacillus (A.) pleuropneumoniae, 20 of Bordetella (B.) bronchiseptica, 20 of Histophilus (H.) somni, 40 of Mannheimia (M.) haemolytica and 40 of Pasteurella (P.) multocida collected in different European countries were determined. All bacteria were isolated from the respiratory tract of swine and cattle suffering from respiratory disease. All isolates were epidemiologically unrelated as specified by the different suppliers.
(§2) The minimum inhibitory concentrations (MIC) of compounds according to the invention were determined by the broth-microdilution method according to CLSI document VET01-A4.
(§3) Microdilution trays containing a doubling dilution series of the test compounds were used for the tests.
(§4) The MIC results were interpreted according to the CLSI documents VET01-S3. The lowest concentration of compound at which no visible growth (i.e. no turbidity) detected by the unaided eye was recorded as the MIC.

[2] = tested on: 20 isolates of Histophilus (H.) somni; assay: as above
Method: as §1, §2, §3, §4

[3] = tested on: 40 isolates of Pasteurella (P.) multocida; assay: as above
Method: as §1, §2, §3, §4

[4] = tested on: 20 isolates of Actinobacillus (A.) pleuropneumoniae; assay: as above
Method: as §1, §2, §3, §4

[5] = tested on: 20 isolates of Bordetella (B.) bronchiseptica; assay: as above
Method: as §1, §2, §3, §4

[6] = tested on: Mannheimia haemolytica MH 6374 (ATCC 33396, reference strain); assay: MIC, broth-microdilution (CLSI VET01-A4)
Outline: (§5)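 MIC values follow CLSI VET01-S3 interpretation, scored as the lowest concentration free of visible turbidity within a doubling dilution series in microdilution trays.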

[7] = tested on: Pasteurella multocida PM 6267 (P 2225 (L386), reference strain, mouse infection strain); assay: MIC, broth-microdilution (CLSI VET01-A4)
Outline: as §5

[8] = tested on: Mannheimia haemolytica MH 12587 (1071, BRD field isolate, macrolide-resistance: erm+, E+); assay: MIC, broth-microdilution (CLSI VET01-A4); settings: Mannheimia haemolytica MH 12587, macrolide-resistant
Outline: as §5

[9] = tested on: Mannheimia haemolytica MH 6357 (M7/2, reference strain, cattle infection strain); assay: MIC, broth-microdilution (CLSI VET01-A4)
Outline: as §5

[10] = tested on: Pasteurella multocida PM 6391 (ATCC 43137, reference strain); assay: MIC, broth-microdilution (CLSI VET01-A4)
Outline: as §5

[11] = tested on: Pasteurella multocida PM 12080 (IV102277-0093, BRD field isolate); assay: MIC, broth-microdilution (CLSI VET01-A4)
Outline: as §5

[12] = tested on: Mannheimia haemolytica MH 10720 (154, BRD field isolate); assay: MIC, broth-microdilution (CLSI VET01-A4); settings: strain MH 10720
Outline: as §5

[13] = tested on: Pasteurella multocida PM 10775 (080130003051, BRD field isolate); assay: MIC, broth-microdilution (CLSI VET01-A4); settings: strain PM 10775
Outline: as §5

[14] = tested on: Mannheimia haemolytica MH 13093 (XB0472-6014.1, BRD field isolate); assay: MIC, broth-microdilution (CLSI VET01-A4)
Outline: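 MIC read by eye as lowest compound concentration without visible growth (no turbidity), interpreted per CLSI VET01-S3. Doubling-dilution broth-microdilution trays, run according to CLSI VET01-A4.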

[15] = tested on: 15 isolates of H. parasuis; assay: MIC50/MIC90, agar-dilution method (GC agar base); settings: Haemophilus parasuis
Method: The in vitro activity of 3 representative compounds of this invention against 15 isolates of H. parasuis was determined. All strains were isolated from the respiratory tract of swine in different European countries The MICs for all isolates were determined by using the agar-dilution method according to CLSI document VET01-A4 [1]with the following modification: GC agar base was used instead of Mueller-Hinton agar base for the preparation of the agar-dilution plates. Results were interpreted according to the CLSI document VET01-S3.

[16] = tested on: Acinetobacter baumanii AB 15919 (IV369-2012, dermatitis field isolate); assay: MIC, broth-microdilution (CLSI VET01-A4); settings: strain AB 15919
Method: (§6) The Minimum inhibitory concentrations (MIC) of compounds according to the invention were determined by the broth-microdilution method according to CLSI document VET01-A4.
(§7) Microdilution trays containing a doubling dilution series of the test compound were used for the tests.
as §4

[17] = tested on: Mannheimia haemolytica MH 12180 (KLI-02944, BRD field isolate); assay: MIC, broth-microdilution (CLSI VET01-A4); settings: strain MH 12180
Method: as §6, §7, §4

[18] = tested on: Acinetobacter baumanii AB 16496 (ATCC 19606, reference strain); assay: MIC, broth-microdilution (CLSI VET01-A4); settings: strain AB 16496
Method: as §6, §7, §4

[19] = tested on: Staphylococcus aureus SA 5816 (2139, mastitis field isolate); assay: MIC, broth-microdilution (CLSI VET01-A4); settings: strain SA 5816
Method: as §6, §7, §4

[20] = tested on: Staphylococcus aureus SA 6114 (ATCC 29213, reference strain); assay: MIC, broth-microdilution (CLSI VET01-A4); settings: strain SA 6114
Method: as §6, §7, §4

[21] = tested on: Pasteurella multocida PM 14426 (0006-439, BRD field isolate, macrolide-resistant); assay: MIC, broth-microdilution (CLSI VET01-A4); settings: strain PM 14426, macrolide-resistant
Method: as §6, §7, §4

C[C@@H](O)[C@H](NC(=O)c1ccc(C#Cc2ccc(CNCC(F)(F)F)cc2)cc1)C(=O)NO [C. 467] was tested, and the MIC50 [1] was 0.032 µg/mL (≈ 0.0712 µM), the MIC90 [1] was 0.063 µg/mL (≈ 0.14 µM) and the MIC50 [2] was no more than 0.016 µg/mL. It also gave an MIC90 [2] of no more than 0.016 µg/mL, an MIC50 [3] of no more than 0.016 µg/mL and an MIC90 [3] of no more than 0.016 µg/mL. For the same compound, the MIC50 [4] was 0.032 µg/mL (≈ 0.0712 µM), the MIC90 [4] was 0.063 µg/mL (≈ 0.14 µM) and the MIC50 [5] was 2 µg/mL (≈ 4.45 µM). It also gave an MIC90 [5] of 2 µg/mL (≈ 4.45 µM), an MIC ([6]; Mannheimia haemolytica MH 6374, read-out: MIC MH 6374) of 0.2 µM and an MIC ([6]; strain MH 6374) of 0.063 µg/mL. The “MIC PM 6267” value ([7]; Pasteurella multocida PM 6267) was “<=0.1 μM”, the MIC ([7]; strain PM 6267) was 0.032 µg/mL (≈ 0.0712 µM) and the “MIC MH 12587” value [8] was 0.4 µM (≈ 0.18 µg/mL). For the same compound, the “MIC MH 6357” value ([9]; Mannheimia haemolytica MH 6357) was “<=0.1 μM”, the MIC ([9]; strain MH 6357) was 0.125 µg/mL (≈ 0.278 µM) and the “MIC PM 6391” value ([10]; Pasteurella multocida PM 6391) was “<=0.1 μM”. For the same compound, the MIC ([10]; strain PM 6391) was 0.032 µg/mL (≈ 0.0712 µM), the “MIC PM 12080” value ([11]; Pasteurella multocida PM 12080) was “<=0.1 μM” and the MIC ([11]; strain PM 12080) was no more than 0.016 µg/mL. For the same compound, the MIC [12] was no more than 0.016 µg/mL, the MIC [13] was no more than 0.016 µg/mL and the MIC [14] was 0.4 µM (≈ 0.18 µg/mL). It also gave an MIC50 [15] of 0.125 µg/mL (≈ 0.278 µM), an MIC90 [15] of 0.25 µg/mL (≈ 0.556 µM) and an MIC [16] greater than 16 µg/mL. It also gave an MIC [17] of 0.032 µg/mL (≈ 0.0712 µM), an MIC [18] greater than 16 µg/mL and an MIC [19] greater than 16 µg/mL. For the same compound, the MIC [20] was greater than 16 µg/mL and the MIC [21] was no more than 0.016 µg/mL.
